Measurements reported in publication PMC10029098 (Chembiochem : a European journal of chemical biology, 2022).
Where “and” joins values, the source holds several entries; their conditions need not be identical. Identical values can stand only once. Ends that are not written are not given here.

What was measured:
PD1/PDL1 interaction = PD1/PDL1 interaction (Homo sapiens, UniProt Q15116); experiment: PD1 ImmunoBlocking ELISA; type: biochemical
[1] = Thermodynamic solubility measurement; type: physicochemical; settings: potassium phosphate buffer, pH 7.4, aqueous buffer, thermodynamic from solid
PD1 = PD1 (Homo sapiens, UniProt Q15116); experiment: UV/Vis-colorimetric PDL1-competitive binding kinetics assay
PD1, sequence (Q15116 25-167 limits assumed): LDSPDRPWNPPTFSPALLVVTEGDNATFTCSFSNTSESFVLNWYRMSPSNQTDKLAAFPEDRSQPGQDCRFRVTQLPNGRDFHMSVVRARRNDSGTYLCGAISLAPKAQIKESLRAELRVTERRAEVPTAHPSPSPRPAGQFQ

[2] = Far-UV CD spectroscopy, thermal denaturation; type: physicochemical; settings: calculated at 293K from best-fitted melting curves of thermal denaturation recorded by CD; phosphate buffer 15 mM, pH 6.5; RC = random coil

PD1/PDL1 interaction, sequence (Q15116 25-167 limits assumed): as above

| EC50 (PD1/PDL1 interaction) | solubility thermodynamic [1] | Ki (PD1) | Sequence | %-Fold, hairpin folded fraction (χF) [2] |
| --- | --- | --- | --- | --- |
| 3700 ± 1020 nM | 300 ± 100 µM | – | RWCARRDYRFDMGFDYWGWE [1c] | – |
| < 600 nM and 290 nM | 900 ± 100 µM | 41 nM | RWVARRDYRFDMGFDYWVWE [1e] | – |
| – | – | – | RWVWRRDYRFDMGFDYWVWE [2c] | 54 ± 1% |
| – | 3400 ± 100 µM | – | RWVARRDYRGDMGFDYWVWE [1d] | – |

| Sequence | EC50 (PD1/PDL1 interaction) | solubility thermodynamic [1] | Ki (PD1) | %-Fold, hairpin folded fraction (χF) [2] |
| --- | --- | --- | --- | --- |
| RWVWRRDYRGDMGFDYWVWE [2b] | – | 600 ± 100 µM | – | 81 ± 1% |
| RWVWGGGGKKGGGGWVWE [2a] | – | 5800 ± 200 µM | – | 87 ± 1% |
